Activity calls are given as the source filed them. The rule behind the calls is not given here. *1 amine or outer side, *2 acyl side, *3 side chain or, on linkers, in order; H or OH if unused. Where a SMILES comes first, the peptide text is derived from it. Bridges are numbered along the chain shown (N, C = ends). [ ]: non-standard residue; d: D form. X3 = O=C(O)CCCCCCCCCCCCCCCCC(=O)NC(CCC(=O)NCCOCCOCC(=O)NCCCCCCNC(=O)C(CCCCNC(=O)CCN1C(=O)CC([*:1])C1=O)NC(=O)CCN1C(=O)CC([*:2])C1=O)C(=O)O; sY = N[C@@H](Cc1ccc(OS(=O)(=O)O)cc1)C(=O)O; AEEA = NCCOCCOCC(=O)O; Aib = CC(C)(N)C(=O)O
Legend:
[1] = target: T1, Cholecystokinin receptor type A (Homo sapiens, UniProt P32238); experiment: Agonist activity at human CCK-1R expressed in HEK293 cells assessed as stimulation of ERK phosphorylation incubated for 5 mins; type: cell-based
T1 sequence (P32238 whole entry): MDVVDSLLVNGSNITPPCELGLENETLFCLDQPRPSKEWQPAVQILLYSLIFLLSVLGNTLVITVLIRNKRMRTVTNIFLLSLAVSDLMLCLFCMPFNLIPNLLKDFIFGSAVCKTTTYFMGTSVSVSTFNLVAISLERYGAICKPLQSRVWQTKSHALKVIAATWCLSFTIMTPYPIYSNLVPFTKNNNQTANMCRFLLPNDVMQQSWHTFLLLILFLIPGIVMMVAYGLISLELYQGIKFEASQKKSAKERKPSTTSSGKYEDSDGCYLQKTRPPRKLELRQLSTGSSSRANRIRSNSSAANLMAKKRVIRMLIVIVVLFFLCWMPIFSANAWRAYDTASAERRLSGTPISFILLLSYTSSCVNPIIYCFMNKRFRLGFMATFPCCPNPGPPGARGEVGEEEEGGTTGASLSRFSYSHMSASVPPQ

[2] = target: T2, Gastrin/cholecystokinin type B receptor (Homo sapiens, UniProt P32239); experiment: Agonist activity at human CCK-2R expressed in HEK293 cells assessed as stimulation of ERK phosphorylation incubated for 5 mins; type: cell-based
T2 sequence (P32239 whole entry): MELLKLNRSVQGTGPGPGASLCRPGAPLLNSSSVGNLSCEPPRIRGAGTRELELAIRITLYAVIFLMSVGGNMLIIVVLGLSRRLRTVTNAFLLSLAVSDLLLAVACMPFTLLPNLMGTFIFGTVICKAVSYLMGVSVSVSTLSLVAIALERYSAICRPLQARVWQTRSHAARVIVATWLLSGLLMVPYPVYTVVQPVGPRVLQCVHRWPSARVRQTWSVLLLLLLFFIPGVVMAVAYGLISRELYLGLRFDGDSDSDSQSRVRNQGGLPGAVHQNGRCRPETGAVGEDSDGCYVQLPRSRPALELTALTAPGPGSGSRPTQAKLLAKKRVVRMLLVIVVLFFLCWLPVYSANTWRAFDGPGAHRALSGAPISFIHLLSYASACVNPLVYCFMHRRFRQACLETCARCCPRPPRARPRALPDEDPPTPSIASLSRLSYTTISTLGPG

[3] = target: Glucagon-like peptide 1 receptor (Homo sapiens, UniProt P43220); experiment: Agonist activity at human GLP-1R expressed in HEK293 cells assessed as stimulation of cAMP accumulation incubated for 20 mins; type: functional, cell-based
Sequence of Glucagon-like peptide 1 receptor (P43220 whole entry): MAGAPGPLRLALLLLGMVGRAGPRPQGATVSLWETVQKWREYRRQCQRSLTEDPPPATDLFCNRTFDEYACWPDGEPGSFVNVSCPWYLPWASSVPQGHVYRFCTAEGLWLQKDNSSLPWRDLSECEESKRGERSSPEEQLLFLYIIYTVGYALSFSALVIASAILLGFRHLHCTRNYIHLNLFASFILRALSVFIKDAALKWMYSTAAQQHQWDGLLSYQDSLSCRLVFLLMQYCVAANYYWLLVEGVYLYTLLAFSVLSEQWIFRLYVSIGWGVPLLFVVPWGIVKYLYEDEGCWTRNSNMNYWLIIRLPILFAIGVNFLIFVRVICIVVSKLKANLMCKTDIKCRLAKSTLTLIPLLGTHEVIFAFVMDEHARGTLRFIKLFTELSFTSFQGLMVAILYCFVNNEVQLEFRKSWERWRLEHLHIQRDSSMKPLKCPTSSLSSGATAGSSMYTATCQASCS

Mus musculus = experiment: Hypoglycemic activity in ICR mouse assessed as decrease in blood glucose concentration at 25 nmol/kg, ip dosed 15 mins before test and measured up to 120 mins by OGTT method; type: functional, organism-based

EC50 [3]	Compound	EC50 [1]	EC50 [2]	Activity (Mus musculus)
0.055 nM	CC[C@H](C)[C@H](NC(=O)[C@H](CC(C)C)NC(=O)[C@H](Cc1c[nH]c2ccccc12)NC(=O)[C@H](CCC(=O)O)NC(=O)[C@@H](NC(=O)[C@H](Cc1ccccc1)NC(=O)[C@@H]1CSC2CC(=O)N(CCC(=O)NC(C(=O)NCCCCCCNC(=O)COCCOCCNC(=O)CCC(NC(=O)CCCCCCCCCCCCCCCCC(=O)O)C(=O)O)CCCCNC(=O)CCN3C(=O)CC(SC[C@H](NC(=O)[C@H](Cc4ccc(O)cc4)NC(=O)[C@H](CCC(=O)O)NC(=O)[C@@H](NC(=O)[C@@H](NC(=O)[C@H](CC(=O)O)NC(=O)[C@H](CC(N)=O)NC(=O)[C@@H](NC(=O)[C@H](Cc4ccc(O)cc4)NC(=O)[C@@H](NC(=O)CNC(=O)[C@H](CCC(=O)O)NC(=O)C(C)(C)NC(=O)[C@@H](N)Cc4c[nH]cn4)[C@@H](C)O)[C@@H](C)O)C(C)C)[C@@H](C)O)C(=O)N[C@@H](CCC(=O)O)C(=O)N[C@@H](CCC(=O)O)C(=O)N[C@@H](CCC(=O)O)C(=O)N[C@@H](C)C(=O)N[C@@H](C)C(=O)N[C@@H](CCCCN)C(=O)N1)C3=O)C2=O)[C@@H](C)CC)C(=O)N[C@@H](CCCCN)C(=O)NCC(=O)N[C@@H](CCCCN)C(=O)NCCOCCOCC(=O)NCCOCCOCC(=O)N[C@@H](Cc1ccc(O)cc1)C(=O)NCC(=O)N[C@@H](Cc1c[nH]c2ccccc12)C(=O)N[C@@H](CC(C)C)C(=O)N[C@@H](CC(=O)O)C(=O)N[C@@H](Cc1ccccc1)C(N)=O (some centres undefined) (H-H[Aib]EGTYTNDVTEYCEEEAAKCFIEWLIKGK[AEEA][AEEA]YGWLDF-NH2; linker 14-21 via X3)	> 1000 nM	15.2 nM	–
0.061 nM	CC[C@H](C)[C@@H]1NC(=O)[C@H](CC(C)C)NC(=O)[C@H](Cc2c[nH]c3ccccc23)NC(=O)[C@H](CCC(=O)O)NC(=O)[C@H]([C@@H](C)CC)NC(=O)[C@H](Cc2ccccc2)NC(=O)[C@@H](NC(=O)[C@H](CCCCN)NC(=O)[C@H](C)NC(=O)[C@H](C)NC(=O)[C@H](CCC(=O)O)NC(=O)[C@H](CCC(=O)O)NC(=O)[C@H](CCC(=O)O)NC(=O)[C@H](CC(C)C)NC(=O)[C@H](Cc2ccc(O)cc2)NC(=O)[C@H](CCC(=O)O)NC(=O)[C@@H](NC(=O)[C@@H](NC(=O)[C@H](CC(=O)O)NC(=O)[C@H](CC(N)=O)NC(=O)[C@@H](NC(=O)[C@H](Cc2ccc(O)cc2)NC(=O)[C@@H](NC(=O)CNC(=O)[C@H](CCC(=O)O)NC(=O)C(C)(C)NC(=O)[C@@H](N)Cc2c[nH]cn2)[C@@H](C)O)[C@@H](C)O)C(C)C)[C@@H](C)O)CSC2CC(=O)N(CCC(=O)NCCCCC(C(=O)NCCCCCCNC(=O)COCCOCCNC(=O)CCC(NC(=O)CCCCCCCCCCCCCCCCC(=O)O)C(=O)O)NC(=O)CCN3C(=O)CC(SC[C@@H](C(=O)NCC(=O)N[C@@H](CCCCN)C(=O)NCCOCCOCC(=O)NCCOCCOCC(=O)N[C@@H](Cc4ccc(O)cc4)C(=O)NCC(=O)N[C@@H](Cc4c[nH]c5ccccc45)C(=O)N[C@@H](CC(C)C)C(=O)N[C@@H](CC(=O)O)C(=O)N[C@@H](Cc4ccccc4)C(N)=O)NC1=O)C3=O)C2=O (some centres undefined) (H-H[Aib]EGTYTNDVTEYLEEEAAKCFIEWLICGK[AEEA][AEEA]YGWLDF-NH2; linker 21-28 via X3)	> 1000 nM	17.5 nM	–
0.083 nM	CC[C@H](C)[C@H](NC(=O)[C@H](CC(C)C)NC(=O)[C@H](Cc1c[nH]c2ccccc12)NC(=O)[C@H](CCC(=O)O)NC(=O)[C@@H](NC(=O)[C@H](Cc1ccccc1)NC(=O)[C@H](CS)NC(=O)[C@H](CCCCN)NC(=O)[C@H](C)NC(=O)[C@H](C)NC(=O)[C@H](CCC(=O)O)NC(=O)[C@H](CCC(=O)O)NC(=O)[C@H](CCC(=O)O)NC(=O)[C@H](CC(C)C)NC(=O)[C@H](Cc1ccc(O)cc1)NC(=O)[C@H](CCC(=O)O)NC(=O)[C@@H](NC(=O)[C@@H](NC(=O)[C@H](CC(=O)O)NC(=O)[C@H](CC(N)=O)NC(=O)[C@@H](NC(=O)[C@H](Cc1ccc(O)cc1)NC(=O)[C@@H](NC(=O)CNC(=O)[C@H](CCC(=O)O)NC(=O)C(C)(C)NC(=O)[C@@H](N)Cc1c[nH]cn1)[C@@H](C)O)[C@@H](C)O)C(C)C)[C@@H](C)O)[C@@H](C)CC)C(=O)N[C@@H](CS)C(=O)NCC(=O)N[C@@H](CCCCN)C(N)=O (HELM PEPTIDE1{H.[Aib].E.G.T.Y.T.N.D.V.T.E.Y.L.E.E.E.A.A.K.C.F.I.E.W.L.I.C.G.K.[am]}$$$$V2.0)	–	–	Active
0.048 nM	H-HGEGTYTNDVTEYLEEEAAKEFIEWLIKGK-NH2	–	–	Active
0.024 nM	H-HGEGTYTNDVTEYLEEEAAKEFIEWLIKGKPSSGAPPSKKKKKK-NH2	–	–	Active
0.036 nM	H-H[Aib]EGTYTNDVTEYLEEEAAKCFIEWLICGKPSSGAPPSKKKKKK-NH2 (cysteines drawn unpaired)	–	–	Active

Further lines, the compound ahead of its results:

Compound	EC50 [3]	EC50 [1]	EC50 [2]	Activity (Mus musculus)
CC[C@H](C)[C@H](NC(=O)[C@H](CC(C)C)NC(=O)[C@H](Cc1c[nH]c2ccccc12)NC(=O)[C@H](CCC(=O)O)NC(=O)[C@@H](NC(=O)[C@H](Cc1ccccc1)NC(=O)[C@H](CS)NC(=O)[C@H](CCCCN)NC(=O)[C@H](C)NC(=O)[C@H](C)NC(=O)[C@H](CCC(=O)O)NC(=O)[C@H](CCC(=O)O)NC(=O)[C@H](CCC(=O)O)NC(=O)[C@H](CC(C)C)NC(=O)[C@H](Cc1ccc(O)cc1)NC(=O)[C@H](CCC(=O)O)NC(=O)[C@@H](NC(=O)[C@@H](NC(=O)[C@H](CC(=O)O)NC(=O)[C@H](CC(N)=O)NC(=O)[C@@H](NC(=O)[C@H](Cc1ccc(O)cc1)NC(=O)[C@@H](NC(=O)CNC(=O)[C@H](CCC(=O)O)NC(=O)C(C)(C)NC(=O)[C@@H](N)Cc1c[nH]cn1)[C@@H](C)O)[C@@H](C)O)C(C)C)[C@@H](C)O)[C@@H](C)CC)C(=O)N[C@@H](CS)C(=O)NCC(=O)N[C@@H](CCCCN)C(=O)N1CCC[C@H]1C(=O)N[C@@H](CO)C(=O)N[C@@H](CO)C(=O)NCC(=O)N[C@@H](C)C(=O)N1CCC[C@H]1C(=O)N1CCC[C@H]1C(=O)N1CCC[C@H]1C(=O)N[C@@H](CO)C(N)=O (HELM PEPTIDE1{H.[Aib].E.G.T.Y.T.N.D.V.T.E.Y.L.E.E.E.A.A.K.C.F.I.E.W.L.I.C.G.K.P.S.S.G.A.P.P.P.S.[am]}$$$$V2.0)	0.052 nM	–	–	Active
H-HGEGTYTNDVTEYLEEEAAKEFIEWLIKGKPSSGAPPPS-NH2	0.034 nM	> 1000 nM	> 1000 nM	Active
H-H[Aib]EGTYTNDVTEYCEEEAAKCFIEWLIKGKPSSGAPPPS[AEEA][AEEA]YGWLDF-NH2 (cysteines drawn unpaired)	0.04 nM	> 1000 nM	8.3 nM	–
H-H[Aib]EGTYTNDVTEYCEEEAAKCFIEWLIKGKPSSGAPPPS[AEEA][AEEA][sY]GWMDF-NH2 (cysteines drawn unpaired)	0.038 nM	> 1000 nM	7.6 nM	–
H-H[Aib]EGTYTNDVTEYCEEEAAKCFIEWLIKGKPSSGAPPSKKKKKK-NH2 (cysteines drawn unpaired)	0.028 nM	–	–	Active
H-H[Aib]EGTYTNDVTEYLEEEAAKCFIEWLICGKPSSGAPPPS[AEEA][AEEA]YGWLDF-NH2 (cysteines drawn unpaired)	0.048 nM	> 1000 nM	9.4 nM	–
H-H[Aib]EGTYTNDVTEYLEEEAAKCFIEWLICGKPSSGAPPPS[AEEA][AEEA][sY]GWMDF-NH2 (cysteines drawn unpaired)	0.059 nM	> 1000 nM	8.2 nM	–

From ChEMBL document CHEMBL4699602, “Stapled and Xenopus Glucagon-Like Peptide 1 (GLP-1)-Based Dual GLP-1/Gastrin Receptor Agonists with Improved Metabolic Benefits in Rodent Models of Obesity and Diabetes” (J Med Chem, 2020)
